Source: publication PMC5065625, “Structure-mechanism-based engineering of chemical regulators targeting distinct pathological factors in Alzheimer's disease” (Nature Communications, 2016)

Columns and labels:
[1] = Stability in solution (UV–vis, ESI–MS) in the presence of Cu(II); format: physicochemical; settings: Cu 25 μM; for k, + Cu(II) (rate of decay of the absorbance peak) / t1/2, + Cu(II) / half-life at 50 μM: HEPES pH 7.4, 37 °C; for half-life at 50 μM: HEPES buffer with CuCl2, pH 7.4, compound 50 μM, read-out: t1/2, + Cu(II)
Description: The stability of 1–4 (50 μM) in the absence and presence of CuCl2 (25 μM) was monitored every 10 min using UV–vis for 5 h in buffer ([…], pH 7.4, […]; 1% DMSO) at 37 °C. The resulting spectra were corrected for baseline shifts at 800 nm and the half-life and rate of decay of the absorbance at 250, 385 and 400 nm for 4, [Cu(II)+1], and [Cu(II)+3], respectively, was calculated using the first-order exponential decay function as implemented in Origin 9.1 (OrginLab Corp., Northampton, MA, USA). Additionally, the species present were identified using ESI–MS. Samples containing 1–4 (50 μM) with or without CuCl2 (25 μM) were incubated in ddH2O (1% DMSO) at 37 °C for the selected time points before being freshly frozen using liquid nitrogen and stored at −80 °C until they were thawed immediately before measurement.

[2] = tested on: Aβ40/Aβ42 toxicity in M17 cells; test: Cell viability (MTT assay), compounds with Aβ and metal–Aβ; format: cell-based, human; settings: compound 20 μM, Aβ40/Aβ42 20 μM, CuCl2 or ZnCl2 20 μM, 24 h
Description: (§1) The M17 cell line was purchased from the American Type Culture Collection (ATCC, Manassas, VA, USA). The cell line was maintained in media containing 50% minimum essential medium and 50% F12 (GIBCO, Grand Island, NY, USA), supplemented with 10% fetal bovine serum (Sigma), 100 U ml^−1 penicillin, and […] streptomycin (GIBCO). The cells were grown and maintained at 37 °C in a humidified atmosphere with 5% CO2. […] Cell viability upon treatment of compounds was determined using the MTT assay (Sigma). M17 cells were seeded in a 96-well plate (15,000 cells in 100 μl per well). The cells were treated with Aβ (20 μM) with or without CuCl2 or ZnCl2 (20 μM), followed by the addition of compounds (20 μM, 1% v/v final DMSO concentration), and incubated for 24 h. After incubation, 25 μl MTT (5 mg ml^−1 in phosphate buffered saline (PBS, pH 7.4, GIBCO) was added to each well and the plate was incubated for 4 h at 37 °C. Formazan produced by the cells was solubilized using an acidic solution of N,N-dimethylformamide (DMF, 50%, v/v aq) and SDS (20%, w/v) overnight at room temperature in the dark. The absorbance was measured at 600 nm using a microplate reader. Cell viability was calculated relative to cells containing an equivalent amount of DMSO.

[3] = tested on: human neuroblastoma SK-N-BE(2)-M17 (M17) cells; test: Cell viability (MTT assay), compounds with and without metal ions; format: cell-based; settings: with and without Cu(II) and Zn(II), up to 20 μM
Description: as §1

Cu(II)–Aβ40/Aβ42 = target: T1, Cu(II)–Aβ40/Aβ42 (Homo sapiens, UniProt P05067); test: nESI-MS / IM–MS interaction studies with Cu(II); format: binding; settings: Aβ40 18 μM, copper(II) acetate 40 μM, compound 120 μM, pH 7.5, 37 °C, 30 min
T1 construct: Aβ40 or Aβ42 was dissolved in ammonium hydroxide
T1 sequence (P05067 672-711): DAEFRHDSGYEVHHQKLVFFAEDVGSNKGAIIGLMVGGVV
Description: All IM–MS experiments were carried out on a Synapt G2 (Waters, Milford, MA)[27][28][29][58]. Samples were ionized using a nano-electrospray source operated in positive ion mode. MS instrumentation was operated at a backing pressure of 2.7 mbar and sample cone voltage of 40 V. The m/z scale was calibrated using 20 mg ml^−1 aqueous cesium iodide. For peptide-metal ligation studies, the aliquots of Aβ peptides (final concentration 18 μM) were sonicated for 5 s before pre-incubation with or without a source of Cu(II) (copper(II) acetate) at 37 °C for 10 min. […] Solution conditions were 100 mM ammonium acetate (pH 7.5) with 1% v/v DMSO. Covalent binding studies with 4 were performed by incubating aliquots of Aβ with the ligand at a ratio of 1:0, 1:5 and 1:25 in water for either 24 h or a week at 25 °C. After incubation the samples were lyophilized for storage until analysis. Immediately before analysis samples were reconstituted to 50 μM peptide concentration in 1,1,1,3,3,3-hexafluoro-2-propanol, sonicated and diluted further to 25 μM for data acquisition. Accurate mass values for ligand-bound complexes were calculated using the monoisotopic peak difference between apo and ligated states with errors reported as a function of two times the s.d. collision cross section (CCS) measurements were externally calibrated using a database of known values in helium, using values for proteins that bracket the likely CCS and ion mobility values of the unknown ions[58][59]. CCS values are the average of six replicates with errors reported as the least square product. This least square analysis combines inherent calibrant error from drift tube measurements (3%)[59]. calibration curve error, and two times the replicate s.d. error. All other conditions are consistent with previously published methods.
Aβ (100 μM) was incubated with 4 (500 μM) in 100 mM ammonium acetate, pH 7.5, without and with the addition of CuCl2 (100 μM) for 1 h at 37 °C without agitation. Before injection into the mass spectrometer, the resulting Aβ was diluted by 10-fold. ESI–MS analysis was performed using a Synapt G2-Si quadrupole time-of-flight mass spectrometer (Waters, Manchester, UK) equipped with electrospray ionization source. The capillary voltage, sampling cone voltage, and source temperature were set to 2.8 kV, 70 V, and 60 °C, respectively. The backing pressure was adjusted to 3.2 mbar.

Solubility = format: physicochemical
[4] = tested on: cationic organic radical of ABTS; test: Trolox equivalent antioxidant capacity (TEAC) assay in M17 cell lysates; format: biochemical, human; settings: relative to Trolox
Description: The assay employing M17 cell lysates was conducted following the protocol of the antioxidant assay kit purchased from Cayman Chemical Company (Ann Arbor, MI, USA) with minor modifications. For the antioxidant assay using cell lysates, cells were seeded in a six-well plate and grown to ∼80–90% confluence. Cell lysates were prepared following a previously reported method with modifications. M17 cells were washed once with cold PBS (pH 7.4, GIBCO) and harvested by gently pipetting off adherent cells with cold PBS. The cell pellet was generated by centrifugation (2,000g for 10 min at 4 °C). This cell pellet was sonicated on ice (5 s pulses, three times with 20 s intervals between each pulse) in 2 ml of cold Assay Buffer (5 mM potassium phosphate, pH 7.4, containing 0.9% NaCl and 0.1% glucose). The cell lysates were centrifuged at 5,000g for 10 min at 4 °C. The supernatant was removed and stored on ice until use. For standard and samples in 96-well plates, 10 μl of the supernatant of cell lysates was delivered followed by addition of compound, metmyoglobin, ABTS and H2O2 in order. After 5 min incubation at room temperature on a shaker, absorbance values at 750 nm were recorded. The antioxidant concentration was calculated according to the measured absorbance (% inhibition=100 × (A0 – A)/A0, where A0 is absorbance of the supernatant of cell lysates). The measurements were conducted in triplicate.

Row | SMILES | Stability of the complex with Cu(II) ([1]; compound 50 μM, 5 h) | k, + Cu(II) (rate of decay of the absorbance peak) ([1]; compound 50 μM) | t1/2, + Cu(II) ([1]; compound 50 μM) | Toxicity induced by metal–Aβ [2] | Toxicity in M17 cells [3] | Interaction with Aβ in the presence of Cu(II) (Cu(II)–Aβ40/Aβ42) | Water solubility relative to 1 (Solubility) | Free organic radical scavenging ability (TEAC) [4] | half-life at 50 μM [1] | Solubility in the 2-deoxyribose assay buffer (Solubility; phosphate buffer pH 7.2)
1 | COc1cc(NCc2ccccn2)cc(OC)c1 [compound 2, 3,5-dimethoxy-N-(pyridin-2-ylmethyl)aniline] | without any further transformations over the course of 5 h | too slow to accurately measure the rate | No noticeable spectral changes were observed over 5 h | diminished | nontoxic | stable ternary complexes | much lower degrees of water solubility | – | – | –
2 | Nc1ccc(NCc2ccccn2)cc1 [compound 1, N^1-(pyridin-2-ylmethyl)benzene-1,4-diamine] | – | 0.09 ± 0.03 min⁻¹ | ~5 min | diminished | nontoxic | Cu–ligand-dependent signals corresponding to a mass 89 Da lighter than the apo Aβ40/Aβ42 | – | greater capacity than 2 | 8 ± 3 min | –
3 | CN(C)c1ccc(NCc2ccc[nH]2)cc1 [compound 4, N^1-((1H-pyrrol-2-yl)methyl)-N^4,N^4-dimethylbenzene-1,4-diamine] | – | too rapidly to measure | – | – | – | not shown to bind to Aβ40 | – | greater capacity than 2 | < 1 min | poor solubility under the assay conditions
4 | CN(C)c1ccc(NCc2ccc3ccccc3n2)cc1 [compound 3, N^1,N^1-dimethyl-N^4-(quinolin-2-ylmethyl)benzene-1,4-diamine] | – | 0.013 ± 0.001 min⁻¹ | ~50 min | – | – | Cu–ligand-dependent signals corresponding to a mass 89 Da lighter than the apo Aβ40/Aβ42 | – | greater capacity than 2 | 53 ± 3 min | –
